The values that follow come from patent publication US10857230B2, “Co-therapy comprising a small molecule CSF-1R inhibitor and an agonistic antibody that specifically binds CD40 for the treatment of cancer” (Janssen Biotech, Inc., priority 2017, dated 2020).

This assay has as its system MC38 murine colon carcinoma cells. Kind of assay: MC38 Tumor Size Assay (Example 1). The format is in vivo, C57BL/6 mice. To be noted: for Median TTE: 61-day study. As for the experimental part: The mice were housed on irradiated Enrich-o'Cobs™ bedding in static microisolators on a 12-hour light cycle at 20-22° C. (68-72° F.) and 40-60% humidity.
MC38 murine colon carcinoma cells were grown in Dulbecco's Modified Eagle Medium (DMEM) supplemented with 10% fetal bovine serum and 2 mM glutamine, 100 units/mL penicillin G sodium, 100 μg/mL streptomycin sulfate, and 25 μg/mL gentamicin.
The MC38 colon cells used for implantation were harvested during log phase growth and re-suspended in cold PBS. Mice were anesthetized with isoflurane prior to implantation. Each mouse was injected subcutaneously in the right flank with 1×10^6 tumor cells (0.1 mL cell suspension) and tumors were monitored as their volumes approached the target range of 350 to 500 mm^3. […] Tumors were measured with calipers twice weekly in two dimensions. Tumor size was calculated using the formula:
where w=width and l=length, in mm, of a tumor. Tumor weight was estimated with the assumption that 1 mg is equivalent to 1 mm^3 of tumor volume.
The compound of formula (I) was stored at room temperature and antibody stock solutions were stored at 4° C. upon receipt.
Each week of dosing, the compound of formula (I) was dissolved in 0.5% HPMC to yield a 1.0 mg/mL dosing solution. The dosing solution was stored at 4° C., protected from light. The rat IgG2a isotype and anti-CSF1R dosing solutions were prepared fresh each day by diluting aliquots of the stock solutions with PBS to yield 1.0 mg/mL dosing solutions. The dosing solutions were stored at 4° C., protected from light. The anti-mCD40 dosing solution was prepared fresh each day by diluting an aliquot of the stock solution with PBS to yield a 0.1 mg/mL dosing solution. The dosing solution was stored at 4° C., protected from light.
On Day 1 of the study, fourteen groups of C57BL/6 mice (n=10) began dosing according to the following protocol.
The vehicle (0.5% HPMC) and the compound of formula (I) were administered orally (p.o.). The rat IgG2a isotype control, anti-mCD40, and anti-CSF1R were administered intraperitoneally (i.p.). Rat IgG2a(2A3) was administered at […]. The compound of formula (I) and anti-CSF1R were administered at 10 mg/kg, and anti-mCD40 was administered at 1 mg/kg. The dosing volume for all animals was 10 mL/kg (0.2 mL per 20-g mouse) and was adjusted for body weight.
Tumors were measured using calipers twice per week. […] TGI (tumor growth inhibition) analysis was performed on Day 15. The MTV (n), the median tumor volume for the number of animals, n, on Day 15, was determined for each group. Percent tumor growth inhibition (% TGI) was defined as the difference between the MTV of the designated control group (Group 1) and the MTV of the drug-treated group, expressed as a percentage of the MTV of the control group: […]
The data set for TGI analysis included all animals in a group, except those that died due to treatment-related or non-treatment related causes
Animals were monitored individually for tumor growth until Day 61. The study protocol specified a tumor growth delay assay based on the median time-to-endpoint (TTE) in a treated group versus the control group. Each animal was marked for tumor progression (TP) when its tumor reached the 1500 mm^3 volume endpoint. The TTE for each mouse was calculated with the following equation: […]
where b is the intercept and m is the slope of the line obtained by linear regression of a log-transformed tumor growth data set. The data set comprised the first observation that exceeded the study endpoint volume and the three consecutive observations that immediately preceded the attainment of the endpoint volume. […] In instances in which the log-transformed calculated TTE preceded the day prior to reaching endpoint or exceeded the day of reaching tumor volume endpoint, a linear interpolation was performed to approximate TTE.

The mark [1] stands for this setting: Groups 3-7: all dosing from Day 1 (antibodies i.p. Days 1, 5, 9, formula (I) p.o. bid×14), formula (I) and anti-CSF1R 10 mg/kg, anti-mCD40 1 mg/kg, vs rat IgG2a control Group 1.
Where [2] appears, read: Groups 9, 11, 13, 14: formula (I) 10 mg/kg p.o. bid×14 beginning Day 4 or anti-CSF1R 10 mg/kg i.p. Days 4, 8, 12, in combinations anti-mCD40 1 mg/kg i.p. Days 1, 5, 9, vs rat IgG2a control Group 1.
Setting [3] is: number of animals of n=10, Groups 3-7: all dosing from Day 1 (antibodies i.p. Days 1, 5, 9, formula (I) p.o. bid×14), formula (I) and anti-CSF1R 10 mg/kg, anti-mCD40 1 mg/kg.
[4] abbreviates: number of animals of n=10, Groups 9, 11, 13, 14: formula (I) 10 mg/kg p.o. bid×14 beginning Day 4 or anti-CSF1R 10 mg/kg i.p. Days 4, 8, 12, in combinations anti-mCD40 1 mg/kg i.p. Days 1, 5, 9.

On to `CC1(C)CC=C(c2nc(C3CC(C)(C)OC(C)(C)C3)ccc2NC(=O)c2nc(C#N)c[nH]2)CC1` [compound of formula (I), 4-cyano-N-(2-(4,4-dimethylcyclohex-1-en-1-yl)-6-(2,2,6,6-tetramethyltetrahydro-2H-pyran-4-yl)pyridin-3-yl)-1H-imidazole-2-carboxamide], for which the “% TGI” value reads like this: (Day 15, vs rat IgG2a control Group 1, Groups 3-7: all dosing from Day 1 (antibodies i.p. Days 1, 5, 9, formula (I) p.o. bid×14), formula (I) and anti-CSF1R 10 mg/kg, anti-mCD40 1 mg/kg) 21%; (Day 15, vs rat IgG2a control Group 1, Groups 9, 11, 13, 14: formula (I) 10 mg/kg p.o. bid×14 beginning Day 4 or anti-CSF1R 10 mg/kg i.p. Days 4, 8, 12, in combinations anti-mCD40 1 mg/kg i.p. Days 1, 5, 9) −24%. Further, the “Median TTE” value (Groups 3-7: all dosing from Day 1 (antibodies i.p. Days 1, 5, 9, formula (I) p.o. bid×14), formula (I) and anti-CSF1R 10 mg/kg, anti-mCD40 1 mg/kg, 1500 mm^3 endpoint) is reported as 17.5 days; the “Median TTE” value (Groups 9, 11, 13, 14: formula (I) 10 mg/kg p.o. bid×14 beginning Day 4 or anti-CSF1R 10 mg/kg i.p. Days 4, 8, 12, in combinations anti-mCD40 1 mg/kg i.p. Days 1, 5, 9, 1500 mm^3 endpoint) was determined as 11.4 days. Moreover, the “% TGD” value by setting is: under setting [1], 17%; under setting [2], −24%. The “T − C” value under setting [1] is 2.5 days and the “T − C” value under setting [2] is -3.6 days. Further, the “Regression CR” value is, setting by setting: under setting [3], 0; under setting [4], 0. Further, the “Regression PR” value came out at 0 under setting [3] and 0 under setting [4]. The “Regression TFS” value is, setting by setting: (tumor-free survivors Day 61, of n=10, Groups 3-7: all dosing from Day 1 (antibodies i.p. Days 1, 5, 9, formula (I) p.o. bid×14), formula (I) and anti-CSF1R 10 mg/kg, anti-mCD40 1 mg/kg) 0; (tumor-free survivors Day 61, of n=10, Groups 9, 11, 13, 14: formula (I) 10 mg/kg p.o. bid×14 beginning Day 4 or anti-CSF1R 10 mg/kg i.p. Days 4, 8, 12, in combinations anti-mCD40 1 mg/kg i.p. Days 1, 5, 9) 0.
